The values below come from PMC10253445, “Exploring the Potential of Sulfonamide-Dihydropyridine Hybrids as Multitargeted Ligands for Alzheimer’s Disease Treatment” (International Journal of Molecular Sciences, 2023).

Molecules are shown by their SMILES. “And” between values parts separate entries of the source, which are not always exact repeats. Identical values can stand only once. “Also recorded” adds a separate entry of the source. Where only a bound is given, the exact number is not on record here.

The target of one assay is T1, eqBChE (Equus caballus, UniProt P81908).
T1 construct: BuChE from horse serum; purchased Sigma-Aldrich; host or cells: horse serum
T1 sequence (P81908 whole entry): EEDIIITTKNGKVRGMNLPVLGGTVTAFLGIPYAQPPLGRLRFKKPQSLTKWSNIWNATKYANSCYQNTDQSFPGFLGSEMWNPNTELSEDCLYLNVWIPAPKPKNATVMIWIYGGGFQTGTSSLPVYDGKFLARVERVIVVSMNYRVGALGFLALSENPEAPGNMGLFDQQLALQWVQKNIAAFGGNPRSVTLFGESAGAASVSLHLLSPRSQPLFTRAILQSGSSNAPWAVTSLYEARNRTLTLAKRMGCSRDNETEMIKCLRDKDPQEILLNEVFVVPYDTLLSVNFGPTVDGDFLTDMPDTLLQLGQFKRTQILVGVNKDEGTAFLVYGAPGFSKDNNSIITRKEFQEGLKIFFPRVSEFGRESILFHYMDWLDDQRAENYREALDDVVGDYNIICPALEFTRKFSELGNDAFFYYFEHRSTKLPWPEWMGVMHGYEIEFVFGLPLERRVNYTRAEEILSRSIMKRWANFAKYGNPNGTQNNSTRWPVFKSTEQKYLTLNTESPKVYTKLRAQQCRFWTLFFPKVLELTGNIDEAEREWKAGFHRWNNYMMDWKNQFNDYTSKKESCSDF
The assay is described as follows: biochemical. The class given is biochemical. Conditions: for IC50: read-out: eqBChE IC50 ± SEM; for inhibition at 10 µM: read-out: eqBChE % inhibition at 10 μM (IC50 not given).

In assay [1] the test system is Nrf2-ARE. Description: Nrf2 transcriptional activation, Nrf2/ARE-luciferase reporter cells. Format: cell-based. Conditions: for CD (concentration required to double the specific luciferase reporter activity): 24 h treatment; for lowest concentration with significant induction of the Nrf2 transcriptional pathway: tested at 1, 5, 10, 25, 50 μM for 24 h. The procedure:
The Nrf2-ARE activating effect of selected 4a, 4d and 4f was evaluated in vitro using a cell-based luciferase assay in the AREc32 cell line, tert-butylhydroquinone (TBHQ) being used as positive control.
Then, AREc32 cells were treated with increasing concentrations of each compound (1, 5, 10, 25, 50 μM) for 24 h, and luciferase activity was then measured.
The evaluation of Nrf2 transcriptional activation was then performed using non-cytotoxic concentrations of the tested compounds according to the protocol previously described. Briefly, the cells were seeded as described for the MTT assay, except that white 96-well culture plates were used. After 48 h of incubation, the cells were treated with the tested compounds or DMSO (0.1%). After 24 h of treatment, luciferase activity was measured using the Bright–Glo Luciferase Assay System (Promega, Madison, WI, USA) according to the manufacturer’s instructions. All reactions were performed in duplicate and repeated in at least four different cultures.

A further assay addresses T2, EeAChE (Electrophorus electricus, UniProt O42275).
T2 construct: purified AChE from Electrophorus; purchased Sigma-Aldrich Type V-S; host or cells: natural enzyme purified from Electrophorus electricus
The assay is described as follows: biochemical. Conditions: for inhibition at 10 µM: read-out: EeAChE % inhibition at 10 μM (IC50 not given).

Assay [2] can be described thus: Oxygen radical absorbance capacity (ORAC) assay. Conditions: Trolox Equivalents, mean (n = 3) ± SEM.
Experimental: Briefly, in a black 96-well microplate (Nunc), fluorescein and the tested compound were incubated for 15 min at 37 °C. […] All reactions were performed in triplicate, and at least three different assays were performed for each sample.
In a further assay the test system is calcium channel. Description: Calcium channel blockade, FLIPR calcium indicator 6 in SH-SY5Y cells. The class given is cell-based. The conditions noted are these: KCl/CaCl2-induced calcium flux. The procedure:
Assessment of calcium channel blockade of compounds 4a–i was performed according to the previously described protocol using the FLIPR calcium indicator 6 [59]. Briefly, FLIPR-loaded SH-SY5Y cells were exposed for 10 min to a 10 μm concentration of the tested compounds and to nimodipine used as a reference. 0.1% DMSO was used as a vehicle. […] Data were collected in three independent experiments with eight technical replicates per experiment. Outliers detected by the Grubbs test were excluded from further analysis.

For assay [3], the system named is Nrf2-ARE. Set-up: method as in PMID 27736061. The conditions noted are these: cited from earlier work.

As usually defined, the IC50 is the concentration that inhibits the measured activity by half. For orientation: inhibition means how much of the control response was suppressed.

T2 sequence (O42275 24-633): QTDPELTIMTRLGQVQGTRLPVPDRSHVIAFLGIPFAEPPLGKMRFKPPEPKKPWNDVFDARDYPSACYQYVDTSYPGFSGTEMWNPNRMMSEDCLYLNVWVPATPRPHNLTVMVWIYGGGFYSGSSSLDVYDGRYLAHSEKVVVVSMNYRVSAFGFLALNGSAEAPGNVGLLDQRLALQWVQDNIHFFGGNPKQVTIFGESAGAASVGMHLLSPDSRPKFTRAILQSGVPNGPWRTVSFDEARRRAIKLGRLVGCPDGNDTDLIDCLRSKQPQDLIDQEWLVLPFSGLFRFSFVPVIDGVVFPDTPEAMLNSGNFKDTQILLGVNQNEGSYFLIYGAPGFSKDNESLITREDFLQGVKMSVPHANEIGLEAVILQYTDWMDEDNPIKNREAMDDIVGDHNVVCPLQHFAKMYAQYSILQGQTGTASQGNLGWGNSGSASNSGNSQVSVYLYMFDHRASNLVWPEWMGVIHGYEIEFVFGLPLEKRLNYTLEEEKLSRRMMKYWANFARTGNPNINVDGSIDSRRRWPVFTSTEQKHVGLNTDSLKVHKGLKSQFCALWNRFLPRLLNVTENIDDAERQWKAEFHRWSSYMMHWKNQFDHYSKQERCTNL
Experimental for EeAChE: The reaction was performed in a final volume of 3 mL of phosphate-buffered solution (0.1 M) at pH = 8.0, containing 2625 μL of 5,5′-dithiobis-2-nitrobenzoic acid (0.35 mM), 29 μL of EeAChE (0.035 U/mL) or 60 μL (0.05 U/mL) of eqBChE, and 3 μL (0.1–10 μM, final concentrations) of the test compounds. After a pre-incubation period of 10 min, 105 μL of acetylthiocholine iodide (0.35 mM) or 150 μL of butyrylthiocholine (0.5 mM) was added and left under stirring for an additional 15 min of incubation. […] IC50 values were determined graphically from log concentration–% inhibition curves, using GraphPad Prism 5.0 software, Dotmatics Boston, MA, USA.
Inhibition of EeAChE and eqBuChE
Inhibitory activity assessment of the TFAHs on ChEs was performed following the
spectrophotometric method of Ellman using purified AChE from Electrophorus
electricus (Type V-S, Sigma-Aldrich) or BuChE from horse serum (lyophilized
powder, Sigma-Aldrich). Enzymes were first dissolved in 0.1 ᴍ phosphate buffer (pH=
8.0) and then aliquoted in small vials. Compounds stock solutions in DMSO (10 mM)
were further diluted with DMSO to prepare nine serial dilutions of each compound.
The reaction occurs in a final volume of 3 mL of a 0.1 M phosphate-buffered solution
at pH= 8.0, containing 5,5’-dithiobis-2-nitrobenzoic acid (DTNB, 2625 µL, 0.35 mM,
final concentration), EeAChE (29 µL, 0.035 U/mL, final concentration) or eqBuChE
(60 µL, 0.05 U/mL, final concentration), tested compound (3 µL, 0.1-10 μM, final
concentrations). Inhibition curves were built by pre-incubating this blend at room
temperature with six concentrations of each compound for 10 min. A control with no
compound was always present to determine the percent of enzymatic activity. After
this pre-incubation period, acetylthiocholine iodide (105 µL, 0.35 mM, final
concentration) or butyrylthiocholine iodide (150 µL, 0.5 mM, final concentration) was
added, allowing 15 min of additional incubation time, where the DTNB produces the
yellow anion 5-thio-2-nitrobenzoic acid as an indicator of enzymatic activity. After 15
Reader MF, Labsystems). Color generation would be reduced as the compound
inhibits the enzymes. IC50 values were determined graphically from log concentration–
% inhibition curves (GraphPad Prism 5.3 software, GraphPad Software Inc.). Data are
expressed as means ± SEM of at least three different experiments in quadruplicate.

Consider `CCOC(=O)C1=C(C)NC(C)=C(C(=O)OCC)C1c1ccc(NS(=O)(=O)c2ccccc2)cc1` [Compound 4d, Diethyl 2,6-Dimethyl-4-(4-(phenylsulfonamido)phenyl)-1,4-dihydropyridine-3,5-dicarboxylate], for which, at eqBChE, the “fold less active than tacrine on eqBChE” value stood at 135 fold, the “selectivity AChE vs BChE” value is “totally selective to BChE; also recorded: fully selective inhibition of BChE” and the IC50 worked out at 0.3 ± 0.1 µM. For the same compound, the “Nrf2 transcriptional activation (luciferase activity)” value in the assay with Nrf2-ARE [1] (1-50 μM, 24 h) is given as “no significant activity”. Besides, the “CD (concentration required to double the specific luciferase reporter activity)” value in the assay with Nrf2-ARE [1] is greater than 50 µM. Further, on EeAChE, the inhibition at 10 µM was less than 50%. In addition, in assay [2], the ORAC was 1.67 TE and 1.67 ± 0.0 TE. Also, the “Calcium Antagonism (% Inhibition at 10 μM) ± SEM” value in the assay with calcium channel is 22 ± 4.7%.

Consider `CCOC(=O)C1=C(C)NC(C)=C(C(=O)OCC)C1c1ccc(NS(=O)(=O)c2ccc(C)cc2)cc1` [Compound 4e, Diethyl 2,6-Dimethyl-4-(4-((4-methylphenyl)sulfonamido)phenyl)-1,4-dihydropyridine-3,5-dicarboxylate], for which the inhibition at 10 µM on eqBChE and on EeAChE was less than 50% each time. For the same compound, the ORAC in assay [2] was found to be 2.07 ± 0.3 TE. Further, in the assay with calcium channel, the “Calcium Antagonism (% Inhibition at 10 μM) ± SEM” value was determined as 26 ± 4.1%.

Regarding `CC1=C(C(=O)OC(C)C)C(c2ccc(NS(=O)(=O)c3ccccc3)cc2)C(C(=O)OC(C)C)=C(C)N1` [Compound 4g, Diisopropyl 2,6-Dimethyl-4-(4-(phenylsulfonamido)phenyl)-1,4-dihydropyridine-3,5-dicarboxylate], the inhibition at 10 µM at eqBChE and on EeAChE was less than 50% each time. In addition, in assay [2], the ORAC is 0.86 TE and 0.86 ± 0.1 TE. The “Calcium Antagonism (% Inhibition at 10 μM) ± SEM” value with calcium channel came to 50 ± 4.1%.

On to `COC(=O)C1=C(C)NC(C)=C(C(=O)OC)C1c1ccc(NS(=O)(=O)c2ccccc2)cc1` [Compound 4a, Dimethyl 2,6-Dimethyl-4-(4-(phenylsulfonamido)phenyl)-1,4-dihydropyridine-3,5-dicarboxylate], for which, at eqBChE, the “selectivity AChE vs BChE” value is “totally selective to BChE; also recorded: fully selective inhibition of BChE” and the IC50 worked out at 5 ± 0.4 µM. Moreover, in the assay on Nrf2-ARE [1], the “CD (concentration required to double the specific luciferase reporter activity)” value was 19.3 µM and 19.3 ± 6.7 µM; the “lowest concentration with significant induction of the Nrf2 transcriptional pathway” value is 25 µM. Further, the inhibition at 10 µM on EeAChE was less than 50%. For the same compound, the ORAC in assay [2] is 1.59 TE and 1.59 ± 0.2 TE. In addition, the “Calcium Antagonism (% Inhibition at 10 μM) ± SEM” value in the assay on calcium channel turned out to be 32 ± 5.1%.

Take `COCCOC(=O)C1=C(C)NC(C)=C(C(=O)OC(C)C)C1c1cccc([N+](=O)[O-])c1` (centres unmarked) [nimodipine, reference compound]: the “Calcium Antagonism (% Inhibition at 10 μM) ± SEM” value with calcium channel turned out to be 52 ± 4.1%.

With `COC(=O)C1=C(C)NC(C)=C(C(=O)OC)C1c1ccc(NS(=O)(=O)c2ccc(C)cc2)cc1` [Compound 4b, Dimethyl 2,6-Dimethyl-4-(4-((4-methylphenyl)sulfonamido)phenyl)-1,4-dihydropyridine-3,5-dicarboxylate], the inhibition at 10 µM at eqBChE and at EeAChE was less than 50% in each case. The ORAC in assay [2] came out at 1.96 ± 0.1 TE. Moreover, the “Calcium Antagonism (% Inhibition at 10 μM) ± SEM” value in the assay on calcium channel was 37 ± 5.1%.

`CC1=C(C(=O)OC(C)C)C(c2ccc(NS(C)(=O)=O)cc2)C(C(=O)OC(C)C)=C(C)N1` [Compound 4i, Diisopropyl 2,6-Dimethyl-4-(4-(methylsulfonamido)phenyl)-1,4-dihydropyridine-3,5-dicarboxylate]: the inhibition at 10 µM on eqBChE and on EeAChE was less than 50% in each case. Further, the ORAC in assay [2] turned out to be 1.11 ± 0.3 TE. Moreover, the “Calcium Antagonism (% Inhibition at 10 μM) ± SEM” value in the assay with calcium channel came out at 25 ± 5.1%.

For the compound `CC1=C(C(=O)OC(C)C)C(c2ccc(NS(=O)(=O)c3ccc(C)cc3)cc2)C(C(=O)OC(C)C)=C(C)N1` [Compound 4h, Diisopropyl 2,6-Dimethyl-4-(4-((4-methylphenyl)sulfonamido)phenyl)-1,4-dihydropyridine-3,5-dicarboxylate], the inhibition at 10 µM at eqBChE and on EeAChE was less than 50% throughout. The ORAC in assay [2] turned out to be 1.59 ± 0.1 TE. In the assay on calcium channel, the “Calcium Antagonism (% Inhibition at 10 μM) ± SEM” value is listed as 51 ± 5.3%.

`CCOC(=O)C1=C(C)NC(C)=C(C(=O)OCC)C1c1ccc(NS(C)(=O)=O)cc1` [Compound 4f, Diethyl 2,6-Dimethyl-4-(4-(methylsulfonamido)phenyl)-1,4-dihydropyridine-3,5-dicarboxylate]: the IC50 on eqBChE worked out at 8.7 ± 0.6 µM. Further, in the assay on Nrf2-ARE [1], the “CD (concentration required to double the specific luciferase reporter activity)” value is 44.3 µM and 44.3 ± 4.7 µM; the “lowest concentration with significant induction of the Nrf2 transcriptional pathway” value was 50 µM. The IC50 on EeAChE (read-out: EeAChE IC50 ± SEM) was 12.6 ± 1.2 µM. Besides, in assay [2], the ORAC was 1.30 TE and 1.30 ± 0.1 TE. Also, in the assay with calcium channel, the “Calcium Antagonism (% Inhibition at 10 μM) ± SEM” value was 27 ± 3.5%.

With `COC(=O)C1=C(C)NC(C)=C(C(=O)OC)C1c1ccc(NS(C)(=O)=O)cc1` [Compound 4c, Dimethyl 2,6-Dimethyl-4-(4-(methylsulfonamido)phenyl)-1,4-dihydropyridine-3,5-dicarboxylate], the inhibition at 10 µM on eqBChE and at EeAChE was less than 50% each time. For the same compound, the ORAC in assay [2] is 3.01 TE and 3.01 ± 0.1 TE.

In the case of `COc1ccc2[nH]cc(CCNC(C)=O)c2c1` [melatonin], the CD in the assay on Nrf2-ARE [3] was 60 µM.

Consider `CC(C)(C)c1cc(O)ccc1O` [TBHQ, tert-butylhydroquinone, reference compound], for which the “CD (concentration required to double the specific luciferase reporter activity)” value in the assay on Nrf2-ARE [1] was 1.2 µM and 1.2 ± 0.2 µM.
